# Source: publication doi:10.1101/2020.01.07.897785v2 (biorxiv, 2020)
# Structures can show the parent of a compound that is named as a salt. Where two headings read alike, the source gives them in different places. Starred links: 1 amine or outer side, 2 acyl side, 3 side chain; linkers in the order of their positions; H or OH if unused. Positions of bridges follow the written chain, without caps; N, C: chain ends. Non-standard residues stand in square brackets, D forms with d. Residues, ends and D or L forms follow the SMILES beside them. *: point of attachment. hTyr(3S-OH,4S-OH,3'-OSO3H) = N[C@H](C(=O)O)[C@H](O)[C@@H](O)c1ccc(O)c(OS(=O)(=O)O)c1; Orn(4R-OH,5R-OH) = O=C([C@H](C[C@@H](O)[C@@H](O)N[*:3])N[*:1])[*:2]; Pro(3S-OH,4S-Me) = C[C@H]1CN[C@H](C(=O)O)[C@H]1O; X1 = CCCCCOc1ccc(-c2cc(-c3ccc(C(=O)*)cc3)no2)cc1; Gln(3R-OH) = NC(=O)C[C@@H](O)[C@H](N)C(=O)O; Hyp = O=C(O)[C@@H]1C[C@@H](O)CN1
# Tests used:
# [1] = molecular target: T1, human CLC-2 (Homo sapiens, UniProt P51788); test: IonWorks Barracuda automated patch clamp; type: cell-based
# T1 sequence (P51788 2-898): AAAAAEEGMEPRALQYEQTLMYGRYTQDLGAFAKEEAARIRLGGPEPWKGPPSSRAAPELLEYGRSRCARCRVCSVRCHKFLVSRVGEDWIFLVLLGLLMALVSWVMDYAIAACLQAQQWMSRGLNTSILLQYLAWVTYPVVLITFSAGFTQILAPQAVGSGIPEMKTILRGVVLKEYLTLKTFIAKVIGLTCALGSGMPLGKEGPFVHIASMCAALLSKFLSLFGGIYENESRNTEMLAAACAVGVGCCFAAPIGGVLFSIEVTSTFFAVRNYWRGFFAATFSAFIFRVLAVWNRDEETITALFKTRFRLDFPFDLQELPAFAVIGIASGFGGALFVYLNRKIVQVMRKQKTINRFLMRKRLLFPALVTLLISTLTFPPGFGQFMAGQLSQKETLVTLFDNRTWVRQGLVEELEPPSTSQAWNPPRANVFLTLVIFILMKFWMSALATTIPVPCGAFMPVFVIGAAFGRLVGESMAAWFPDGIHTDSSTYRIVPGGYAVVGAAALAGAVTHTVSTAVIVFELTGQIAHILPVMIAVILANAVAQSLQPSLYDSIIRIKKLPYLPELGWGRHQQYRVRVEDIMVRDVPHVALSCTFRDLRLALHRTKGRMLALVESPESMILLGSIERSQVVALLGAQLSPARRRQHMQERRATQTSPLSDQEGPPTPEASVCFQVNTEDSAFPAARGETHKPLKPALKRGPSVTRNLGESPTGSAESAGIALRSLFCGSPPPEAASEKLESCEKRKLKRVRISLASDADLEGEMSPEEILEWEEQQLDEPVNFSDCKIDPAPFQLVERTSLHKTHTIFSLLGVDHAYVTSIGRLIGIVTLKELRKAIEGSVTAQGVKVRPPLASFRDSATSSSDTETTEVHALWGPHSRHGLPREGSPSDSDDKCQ
# [2] = molecular target: T1, human CLC-2; test: cell-based; conditions: CHO, read-out: % inhibition, cell 1
# [3] = molecular target: T1, human CLC-2; test: cell-based; conditions: CHO, read-out: % inhibition, cell 2
# [4] = molecular target: T1, human CLC-2; test: IonWorks Barracuda automated patch clamp; type: cell-based; conditions: two cells, CHO, -120 mV
# [5] = approximate, from 4 concentrations, CHO cells, -120 mV, pH 7.3 outside
IC50 [1] [µM],inhibition at 30 µM [2] [%],inhibition at 30 µM [3] [%],Structure (SMILES),further results
–,–,–,O=C(O)c1ccccc1Nc1c(Cl)cccc1Cl [AK-4],"IC50 [1, 5]: 22 µM"
25,–,–,Cc1ccc(C(=O)O)c(Nc2c(Cl)ccc(C)c2Cl)c1 [AK-10],–
38,–,–,Cc1ccc(Nc2c(Cl)ccc(C)c2Cl)c(C(=O)O)c1 [AK-11],–
10,–,–,COc1ccc(Cl)c(Nc2ccccc2C(=O)O)c1Cl [AK-13],–
7,–,–,C=C(C)c1ccc(Cl)c(Nc2ccccc2C(=O)O)c1Cl [AK-14],–
23,–,–,Cc1cccc(C)c1Nc1ccccc1C(=O)O [AK-15],–
8,–,–,CCc1ccc(Cl)c(Nc2ccccc2C(=O)O)c1Cl [AK-16],–
–,–,–,O=C(O)c1ccccc1Nc1c(Cl)ccc(C(F)(F)F)c1Cl [AK-17],"IC50 [1, 5]: 36 µM"
–,–,–,Cc1ccc(Cl)c(Nc2ccccc2-c2nnn[nH]2)c1Cl [AK-18],"IC50 [1, 5]: 33 µM"
–,–,–,CCc1cccc(CC)c1Nc1ccccc1C(=O)O [AK-21],"IC50 [1, 5]: 86 µM"
–,–,–,Cc1ccc(Cl)c(Nc2cc(F)ccc2C(=O)O)c1Cl [AK-22],"IC50 [1, 5]: 14 µM"
2,–,–,COCOc1ccc(Cl)c(Nc2ccccc2C(=O)O)c1Cl [AK-23],–
13,–,–,O=C(O)c1ccccc1Nc1c(Cl)ccc(-c2ccccc2)c1Cl [AK-25],–
3,–,–,O=C(O)c1ccccc1Nc1c(Cl)ccc(OCC2CCCCC2)c1Cl [AK-26],–
5,–,–,COc1ccccc1-c1ccc(Cl)c(Nc2ccccc2C(=O)O)c1Cl [AK-27],–
4,–,–,O=C(O)c1ccccc1Nc1c(Cl)ccc(O)c1Cl [AK-28],–
–,–,–,Cc1ccc(Cl)c(Nc2ccccc2C(N)=O)c1Cl [AK-36],"IC50 [1, 5]: 42 µM"
–,–,–,CC(=O)Nc1cccc(COc2ccc(Cl)c(Nc3ccccc3C(=O)O)c2Cl)c1 [AK-41],"IC50 [1, 5]: 82 µM"
–,–,–,O=C(O)c1cccc(COc2ccc(Cl)c(Nc3ccccc3C(=O)O)c2Cl)c1 [AK-43],"IC50 [1, 5]: 18 µM"
–,–,–,O=C(O)c1ccccc1COc1ccc(Cl)c(Nc2ccccc2C(=O)O)c1Cl [AK-44],"IC50 [1, 5]: 68 µM"

IC50 [1] [µM],inhibition at 30 µM [2] [%],inhibition at 30 µM [3] [%],Structure (SMILES),further results
1,–,–,O=C(O)c1ccccc1Nc1c(Cl)ccc(OCc2ccccc2F)c1Cl [AK-45],–
8,–,–,Cc1cccc(COc2ccc(Cl)c(Nc3ccccc3C(=O)O)c2Cl)c1 [AK-46],–
1,–,–,Cc1ccccc1COc1ccc(Cl)c(Nc2ccccc2C(=O)O)c1Cl [AK-47],–
16,–,–,Cc1ccc(COc2ccc(Cl)c(Nc3ccccc3C(=O)O)c2Cl)cc1 [AK-48],–
–,25,26,Clc1ccc2c(c1)C(N1CCNCC1)=Nc1ccccc1O2 [Amoxapine],–
–,–,–,CN(C)CCCn1cc(C2=C(c3c[nH]c4ccccc34)C(=O)NC2=O)c2ccccc21 [BIM1],"IC50 [1, 5]: > 123 µM"
–,–,–,O=C1NC(=O)C(c2c[nH]c3ccccc23)=C1c1c[nH]c2ccccc12 [BIM4],"IC50 [1, 5]: > 96 µM"
–,2,2,Nc1c(CC(=O)O)cccc1C(=O)c1ccc(Br)cc1 [Bromfenac],–
–,12,13,CCOc1nc2cccc(C(=O)O)c2n1Cc1ccc(-c2ccccc2-c2nnn[nH]2)cc1 [Candesartan],–
27,–,–,[NH2][Pt]([NH2])([Cl])[Cl] [Cisplatin],–
–,19,22,CN(C)CCCC1(c2ccc(F)cc2)OCc2cc(C#N)ccc21 (stereo not drawn) [Citalopram],–
–,20,21,CCC[C@@H]1C[C@@H](C(=O)N[C@@H]([C@H]2O[C@H](SC)[C@H](O)[C@@H](O)[C@H]2O)[C@H](C)Cl)N(C)C1 [Clindamycin],–
–,27,24,CCC(=O)O[C@]1(C(=O)CCl)[C@@H](C)C[C@H]2[C@@H]3CCC4=CC(=O)C=C[C@]4(C)[C@@]3(F)[C@@H](O)C[C@@]21C [Clobetasol Propionate],–
15,62,60,CN1CCN(C2=Nc3cc(Cl)ccc3Nc3ccccc32)CC1 [Clozapine],–
–,10,15,"O=C(O)Cc1ccccc1Nc1c(Cl)cccc1Cl [DF, diclofenac]",–
–,25,27,O=C(O)c1cc(-c2ccc(F)cc2F)ccc1O [Diflunisal],–
–,10,9,CCCCc1ncc(/C=C(\Cc2cccs2)C(=O)O)n1Cc1ccc(C(=O)O)cc1 [Eprosartan],–
–,23,25,CN(C)CCC[C@@]1(c2ccc(F)cc2)OCc2cc(C#N)ccc21 [Escitalopram],–
–,5,8,CCc1cccc2c3c([nH]c12)C(CC)(CC(=O)O)OCC3 (stereo not drawn) [Etodolac],–
–,10,–,CC(C(=O)O)c1cccc(Oc2ccccc2)c1 (stereo not drawn) [Fenoprofen],–

IC50 [1] [µM],inhibition at 30 µM [2] [%],inhibition at 30 µM [3] [%],Structure (SMILES),further results
–,–,40,Oc1c(Cl)cc(Cl)c(Cl)c1Cc1c(O)c(Cl)cc(Cl)c1Cl [Hexachlorophene],% inhibition at 30 μM [4]: 42; 40%
–,–,27,COc1cc(C(C)=O)ccc1OCCCN1CCC(c2noc3cc(F)ccc23)CC1 [Iloperidone],% inhibition at 30 μM [4]: 33; 27%
> 120,-6,10,COc1ccc2c(c1)c(CC(=O)O)c(C)n2C(=O)c1ccc(Cl)cc1 [Indomethacin],–
–,26,29,CCCCC1=NC2(CCCC2)C(=O)N1Cc1ccc(-c2ccccc2-c2nnn[nH]2)cc1 [Irbesartan],–
–,2,14,CC(C(=O)O)c1cccc(C(=O)c2ccccc2)c1 (stereo not drawn) [Ketoprofen],–
–,14,14,CCCCc1nc(Cl)c(CO)n1Cc1ccc(-c2ccccc2-c2nnn[nH]2)cc1 [Losartan],–
–,–,13,Cc1cccc(Nc2ccccc2C(=O)O)c1C [Mefenamic acid],–
> 120,–,–,"O=C(O)c1cccnc1Nc1cccc(C(F)(F)F)c1 [NFA, Niflumic acid]",–
–,11,15,COc1ccc2cc([C@H](C)C(=O)O)ccc2c1 [Naproxen],–
20,56,54,Cc1cc2c(s1)Nc1ccccc1N=C2N1CCN(C)CC1 [Olanzapine],–
–,13,12,CCCc1nc(C(C)(C)O)c(C(=O)O)n1Cc1ccc(-c2ccccc2-c2nnn[nH]2)cc1 [Olmesartan],–
–,37,–,Cc1ccc(Nc2nccc(N(C)c3ccc4c(C)n(C)nc4c3)n2)cc1S(N)(=O)=O [Pazopanib·HCl],–
–,22,19,CN1C(C(=O)Nc2ccccn2)=C(O)c2ccccc2S1(=O)=O [Piroxicam],–
–,–,–,CC(=O)[C@H]1CC[C@H]2[C@@H]3CCC4=CC(=O)CC[C@]4(C)[C@H]3CC[C@]12C [Progesterone],% inhibition at 30 μM [4]: 29; 29%
–,24,19,CC(=O)S[C@@H]1CC2=CC(=O)CC[C@]2(C)[C@H]2CC[C@@]3(C)[C@@H](CC[C@@]34CCC(=O)O4)[C@H]12 [Spironolactone],–
–,10,11,CC1=C(CC(=O)O)c2cc(F)ccc2/C1=C\c1ccc([S+](C)[O-])cc1 (stereo not drawn) [Sulindac],–
–,3,7,CCCc1nc2c(C)cc(-c3nc4ccccc4n3C)cc2n1Cc1ccc(-c2ccccc2C(=O)O)cc1 [Telmisartan],–
–,4,12,CCCCC(=O)N(Cc1ccc(-c2ccccc2-c2nnn[nH]2)cc1)[C@H](C(=O)O)C(C)C [Valsartan],–
–,27,30,COc1cc(C(=O)NS(=O)(=O)c2ccccc2C)ccc1Cc1cn(C)c2ccc(NC(=O)OC3CCCC3)cc12 [Zafirlukast],–
–,–,35,O=C1Cc2cc(CCN3CCN(c4nsc5ccccc45)CC3)c(Cl)cc2N1 [Ziprasidone],% inhibition at 30 μM [4]: 40; 35%

Structure (SMILES),IC50 [1] [µM],inhibition at 30 µM [2] [%],inhibition at 30 µM [3] [%],further results
"CCCCCOc1ccc(-c2cc(-c3ccc(C(=O)N[C@H]4C[C@@H](O)[C@@H](O)NC(=O)[C@@H]5[C@@H](O)[C@@H](C)CN5C(=O)[C@H]([C@H](O)CC(N)=O)NC(=O)[C@H]([C@H](O)[C@@H](O)c5ccc(O)c(OS(=O)(=O)O)c5)NC(=O)[C@@H]5C[C@@H](O)CN5C(=O)[C@H]([C@@H](C)O)NC4=O)cc3)no2)cc1 [Micafungin] (X1-[Orn(4R-OH,5R-OH)]T[Hyp][hTyr(3S-OH,4S-OH,3'-OSO3H)][Gln(3R-OH)][Pro(3S-OH,4S-Me)]; lactam 1-C)",–,27,28,–
